Measurements: ChEMBL document CHEMBL5291721, “A preclinical secondary pharmacology resource illuminates target-adverse drug reaction associations of marketed drugs” (Nat Commun, 2023)

Experiments:
[1] = molecular target: T1, Alpha-1A adrenergic receptor (Homo sapiens, UniProt P35348); type: functional, cell-based
T1 sequence (P35348 whole entry): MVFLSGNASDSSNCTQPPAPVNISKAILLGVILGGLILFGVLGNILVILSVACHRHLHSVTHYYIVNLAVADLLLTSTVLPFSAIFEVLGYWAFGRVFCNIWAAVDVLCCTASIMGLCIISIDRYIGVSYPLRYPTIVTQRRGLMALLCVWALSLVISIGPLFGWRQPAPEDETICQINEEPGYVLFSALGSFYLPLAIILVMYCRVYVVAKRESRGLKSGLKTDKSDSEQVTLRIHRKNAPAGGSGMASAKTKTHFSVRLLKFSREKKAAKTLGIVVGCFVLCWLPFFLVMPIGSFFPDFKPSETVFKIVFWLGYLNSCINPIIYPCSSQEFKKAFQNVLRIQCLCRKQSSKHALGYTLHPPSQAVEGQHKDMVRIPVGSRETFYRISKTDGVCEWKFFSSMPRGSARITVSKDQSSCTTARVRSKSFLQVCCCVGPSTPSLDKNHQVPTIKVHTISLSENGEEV

[2] = molecular target: Muscarinic acetylcholine receptor M3 (Homo sapiens, UniProt P20309)
Sequence of Muscarinic acetylcholine receptor M3 (P20309 whole entry): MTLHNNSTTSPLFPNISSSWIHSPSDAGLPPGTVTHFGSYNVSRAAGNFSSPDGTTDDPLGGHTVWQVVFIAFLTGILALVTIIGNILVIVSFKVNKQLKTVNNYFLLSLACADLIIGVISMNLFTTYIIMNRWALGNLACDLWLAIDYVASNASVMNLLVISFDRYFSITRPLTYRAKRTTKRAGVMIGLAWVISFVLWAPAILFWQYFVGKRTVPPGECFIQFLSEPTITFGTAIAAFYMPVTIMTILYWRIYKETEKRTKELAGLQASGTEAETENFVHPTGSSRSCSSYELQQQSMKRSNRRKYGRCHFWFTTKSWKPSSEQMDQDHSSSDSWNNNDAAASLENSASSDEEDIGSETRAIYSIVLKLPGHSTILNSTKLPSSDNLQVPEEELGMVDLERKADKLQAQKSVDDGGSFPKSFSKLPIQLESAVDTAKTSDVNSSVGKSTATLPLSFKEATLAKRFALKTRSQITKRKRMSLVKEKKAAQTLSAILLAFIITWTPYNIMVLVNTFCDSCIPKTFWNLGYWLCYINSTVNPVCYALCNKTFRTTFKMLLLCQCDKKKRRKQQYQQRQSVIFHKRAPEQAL

Endothelin-1 receptor = molecular target: T2, Endothelin-1 receptor (Homo sapiens, UniProt P25101)
T2 sequence (P25101 whole entry): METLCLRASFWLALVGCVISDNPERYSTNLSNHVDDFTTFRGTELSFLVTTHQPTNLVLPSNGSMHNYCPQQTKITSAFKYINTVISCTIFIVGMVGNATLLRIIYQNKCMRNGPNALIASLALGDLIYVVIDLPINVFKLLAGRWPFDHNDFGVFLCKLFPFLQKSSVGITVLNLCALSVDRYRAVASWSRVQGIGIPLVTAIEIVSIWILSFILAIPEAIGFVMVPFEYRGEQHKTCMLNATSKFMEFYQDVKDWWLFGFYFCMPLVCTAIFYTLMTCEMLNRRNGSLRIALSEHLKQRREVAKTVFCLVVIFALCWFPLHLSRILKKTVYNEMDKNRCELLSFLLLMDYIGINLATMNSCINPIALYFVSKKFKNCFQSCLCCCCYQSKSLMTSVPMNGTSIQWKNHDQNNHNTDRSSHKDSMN

Estrogen receptor = molecular target: T3, Estrogen receptor (Homo sapiens, UniProt P03372)
T3 sequence (P03372 whole entry): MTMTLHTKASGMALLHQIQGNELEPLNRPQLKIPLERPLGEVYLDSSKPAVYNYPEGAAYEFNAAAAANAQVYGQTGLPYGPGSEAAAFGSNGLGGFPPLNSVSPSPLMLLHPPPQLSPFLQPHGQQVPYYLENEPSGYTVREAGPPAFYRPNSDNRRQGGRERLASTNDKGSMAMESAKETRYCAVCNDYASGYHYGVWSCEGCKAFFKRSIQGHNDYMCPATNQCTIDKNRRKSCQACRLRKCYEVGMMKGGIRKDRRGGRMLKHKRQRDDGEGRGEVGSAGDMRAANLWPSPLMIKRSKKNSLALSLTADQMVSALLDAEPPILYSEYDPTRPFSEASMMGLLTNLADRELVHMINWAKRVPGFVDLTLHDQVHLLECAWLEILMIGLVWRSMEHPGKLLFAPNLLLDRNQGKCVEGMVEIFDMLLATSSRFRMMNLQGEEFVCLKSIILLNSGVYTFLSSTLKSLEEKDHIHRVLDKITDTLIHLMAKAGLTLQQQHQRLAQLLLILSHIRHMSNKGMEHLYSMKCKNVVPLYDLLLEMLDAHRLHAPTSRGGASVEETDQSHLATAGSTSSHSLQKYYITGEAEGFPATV

[3] = molecular target: T4, Gamma-aminobutyric acid receptor subunit alpha-1 (Rattus norvegicus, UniProt P62813)
T4 sequence (P62813 whole entry): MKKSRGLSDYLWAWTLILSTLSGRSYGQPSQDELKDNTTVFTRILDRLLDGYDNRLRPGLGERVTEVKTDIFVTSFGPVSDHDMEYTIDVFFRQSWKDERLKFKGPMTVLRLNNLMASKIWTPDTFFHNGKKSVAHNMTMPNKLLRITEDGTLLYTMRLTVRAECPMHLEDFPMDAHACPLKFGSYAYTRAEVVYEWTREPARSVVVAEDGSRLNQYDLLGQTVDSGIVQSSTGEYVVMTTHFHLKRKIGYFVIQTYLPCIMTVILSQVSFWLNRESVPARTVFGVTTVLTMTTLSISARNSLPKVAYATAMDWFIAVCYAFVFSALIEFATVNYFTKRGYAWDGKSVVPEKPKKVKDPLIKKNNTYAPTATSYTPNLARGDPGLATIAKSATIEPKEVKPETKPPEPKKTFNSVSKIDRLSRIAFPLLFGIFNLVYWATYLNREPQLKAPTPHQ

[4] = molecular target: T4, Gamma-aminobutyric acid receptor subunit alpha-1; type: functional
[5] = molecular target: Growth hormone secretagogue receptor type 1 (Homo sapiens, UniProt Q92847)
Sequence of Growth hormone secretagogue receptor type 1 (Q92847 whole entry): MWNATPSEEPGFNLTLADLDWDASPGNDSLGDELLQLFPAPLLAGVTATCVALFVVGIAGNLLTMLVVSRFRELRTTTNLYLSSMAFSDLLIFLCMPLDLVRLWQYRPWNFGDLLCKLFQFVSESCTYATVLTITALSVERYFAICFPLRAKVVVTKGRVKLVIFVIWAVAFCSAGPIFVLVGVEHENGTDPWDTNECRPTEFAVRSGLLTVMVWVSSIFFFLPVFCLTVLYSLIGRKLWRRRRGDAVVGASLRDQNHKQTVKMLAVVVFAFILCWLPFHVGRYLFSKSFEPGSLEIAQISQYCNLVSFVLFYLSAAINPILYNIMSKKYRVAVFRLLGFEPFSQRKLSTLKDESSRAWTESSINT

[6] = molecular target: Glutamate receptor ionotropic, NMDA 1 (Rattus norvegicus, UniProt P35439)
[7] = molecular target: T5, 5-hydroxytryptamine receptor 1A (Homo sapiens, UniProt P08908); type: functional, cell-based
T5 sequence (P08908 whole entry): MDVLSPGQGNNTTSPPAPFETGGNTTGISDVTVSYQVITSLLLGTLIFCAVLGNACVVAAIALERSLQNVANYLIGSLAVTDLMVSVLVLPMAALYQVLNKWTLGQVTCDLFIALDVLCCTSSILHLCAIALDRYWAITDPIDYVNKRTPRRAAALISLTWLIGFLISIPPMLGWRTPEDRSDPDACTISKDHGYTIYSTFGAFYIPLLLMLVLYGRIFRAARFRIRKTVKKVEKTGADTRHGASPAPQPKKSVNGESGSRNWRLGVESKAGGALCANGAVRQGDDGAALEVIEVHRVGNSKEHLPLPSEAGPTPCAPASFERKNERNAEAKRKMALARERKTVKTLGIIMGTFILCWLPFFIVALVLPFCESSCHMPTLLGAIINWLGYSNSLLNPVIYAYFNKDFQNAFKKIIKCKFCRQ

Motilin receptor = Motilin receptor (Homo sapiens, UniProt O43193)
Sequence of Motilin receptor (O43193 whole entry): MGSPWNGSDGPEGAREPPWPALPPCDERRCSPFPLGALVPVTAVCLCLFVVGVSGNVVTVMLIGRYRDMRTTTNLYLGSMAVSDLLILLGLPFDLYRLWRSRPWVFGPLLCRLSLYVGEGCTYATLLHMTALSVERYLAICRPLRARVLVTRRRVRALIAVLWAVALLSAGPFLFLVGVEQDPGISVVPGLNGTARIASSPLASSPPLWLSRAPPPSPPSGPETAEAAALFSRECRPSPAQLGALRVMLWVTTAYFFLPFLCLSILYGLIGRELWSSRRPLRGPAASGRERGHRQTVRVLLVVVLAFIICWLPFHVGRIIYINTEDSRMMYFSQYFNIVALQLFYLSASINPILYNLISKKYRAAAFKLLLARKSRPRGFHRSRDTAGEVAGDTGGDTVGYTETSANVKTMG

[8] = molecular target: cGMP-inhibited 3',5'-cyclic phosphodiesterase 3A (Homo sapiens, UniProt Q14432); type: functional
Sequence of cGMP-inhibited 3',5'-cyclic phosphodiesterase 3A (Q14432 whole entry): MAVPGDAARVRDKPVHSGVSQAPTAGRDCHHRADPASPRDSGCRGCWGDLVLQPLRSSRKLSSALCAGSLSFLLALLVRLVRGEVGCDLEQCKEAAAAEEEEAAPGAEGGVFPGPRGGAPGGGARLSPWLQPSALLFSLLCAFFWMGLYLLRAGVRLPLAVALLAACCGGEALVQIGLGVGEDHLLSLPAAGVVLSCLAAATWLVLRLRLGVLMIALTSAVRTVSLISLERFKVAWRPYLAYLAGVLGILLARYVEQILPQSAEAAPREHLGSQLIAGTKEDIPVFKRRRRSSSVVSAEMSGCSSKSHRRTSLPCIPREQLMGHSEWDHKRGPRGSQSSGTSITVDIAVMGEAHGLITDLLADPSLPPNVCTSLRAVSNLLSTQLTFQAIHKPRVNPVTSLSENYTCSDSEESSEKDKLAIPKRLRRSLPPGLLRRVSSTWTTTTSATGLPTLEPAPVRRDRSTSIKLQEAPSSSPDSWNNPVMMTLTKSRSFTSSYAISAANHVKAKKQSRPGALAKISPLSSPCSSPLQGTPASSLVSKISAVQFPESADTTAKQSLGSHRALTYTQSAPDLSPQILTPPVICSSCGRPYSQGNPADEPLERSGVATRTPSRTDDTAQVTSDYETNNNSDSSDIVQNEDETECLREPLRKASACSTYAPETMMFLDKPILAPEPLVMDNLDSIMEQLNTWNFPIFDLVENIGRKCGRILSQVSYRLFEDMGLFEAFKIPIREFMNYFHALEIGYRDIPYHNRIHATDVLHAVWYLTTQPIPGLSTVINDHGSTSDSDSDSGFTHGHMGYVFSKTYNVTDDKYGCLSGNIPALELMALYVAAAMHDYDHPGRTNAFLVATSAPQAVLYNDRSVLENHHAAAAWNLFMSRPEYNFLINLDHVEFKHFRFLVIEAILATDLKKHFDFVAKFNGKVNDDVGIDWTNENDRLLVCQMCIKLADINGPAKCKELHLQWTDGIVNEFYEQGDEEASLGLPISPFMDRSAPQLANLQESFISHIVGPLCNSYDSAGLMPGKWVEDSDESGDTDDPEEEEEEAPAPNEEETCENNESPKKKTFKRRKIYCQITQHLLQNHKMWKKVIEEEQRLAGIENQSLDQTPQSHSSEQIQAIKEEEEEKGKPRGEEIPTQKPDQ

D(3) dopamine receptor = D(3) dopamine receptor (Homo sapiens, UniProt P35462)
Sequence of D(3) dopamine receptor (P35462 whole entry): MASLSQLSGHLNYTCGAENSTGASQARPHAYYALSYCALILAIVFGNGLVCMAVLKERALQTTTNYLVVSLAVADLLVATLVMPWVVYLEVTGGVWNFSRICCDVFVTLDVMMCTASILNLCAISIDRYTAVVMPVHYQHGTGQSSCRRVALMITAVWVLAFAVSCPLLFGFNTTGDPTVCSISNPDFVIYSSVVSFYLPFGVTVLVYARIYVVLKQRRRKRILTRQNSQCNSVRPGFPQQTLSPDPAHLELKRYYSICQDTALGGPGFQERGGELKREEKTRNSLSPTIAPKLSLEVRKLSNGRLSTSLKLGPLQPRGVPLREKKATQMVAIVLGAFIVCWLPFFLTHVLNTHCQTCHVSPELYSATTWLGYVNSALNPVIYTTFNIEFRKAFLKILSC

Histamine H3 receptor = Histamine H3 receptor (Homo sapiens, UniProt Q9Y5N1)
Sequence of Histamine H3 receptor (Q9Y5N1 whole entry): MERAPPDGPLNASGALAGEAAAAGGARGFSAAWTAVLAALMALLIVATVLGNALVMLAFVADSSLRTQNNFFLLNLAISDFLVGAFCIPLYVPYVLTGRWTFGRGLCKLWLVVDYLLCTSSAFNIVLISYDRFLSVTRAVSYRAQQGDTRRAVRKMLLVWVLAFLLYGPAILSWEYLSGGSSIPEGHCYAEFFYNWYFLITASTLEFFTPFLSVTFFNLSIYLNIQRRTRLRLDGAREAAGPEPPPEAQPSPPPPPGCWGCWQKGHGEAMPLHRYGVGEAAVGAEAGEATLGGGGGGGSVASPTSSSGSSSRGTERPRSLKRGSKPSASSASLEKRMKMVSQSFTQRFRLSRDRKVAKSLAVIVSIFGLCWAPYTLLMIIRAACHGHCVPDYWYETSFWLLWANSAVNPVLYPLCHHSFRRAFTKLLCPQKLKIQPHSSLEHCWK

[9] = molecular target: Beta-2 adrenergic receptor (Homo sapiens, UniProt P07550)
Sequence of Beta-2 adrenergic receptor (P07550 whole entry): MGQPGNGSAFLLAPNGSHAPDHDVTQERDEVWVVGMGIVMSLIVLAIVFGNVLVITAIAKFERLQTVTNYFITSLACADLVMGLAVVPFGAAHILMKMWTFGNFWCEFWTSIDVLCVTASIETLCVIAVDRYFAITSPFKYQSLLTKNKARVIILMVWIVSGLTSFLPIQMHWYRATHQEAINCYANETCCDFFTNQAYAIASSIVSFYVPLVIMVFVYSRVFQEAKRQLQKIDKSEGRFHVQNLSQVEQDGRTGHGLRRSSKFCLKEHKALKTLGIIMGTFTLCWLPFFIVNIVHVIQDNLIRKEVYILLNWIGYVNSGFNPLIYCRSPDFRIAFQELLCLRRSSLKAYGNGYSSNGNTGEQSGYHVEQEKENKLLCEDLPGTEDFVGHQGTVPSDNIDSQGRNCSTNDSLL
Further: assay procedure not described here.

Row | SMILES | AC50 [1] | AC50 [2] | AC50 (Endothelin-1 receptor) | AC50 (Estrogen receptor) | AC50 [3] | AC50 [4] | AC50 [5] | AC50 [6] | AC50 [7] | AC50 (Motilin receptor) | AC50 [8] | AC50 (D(3) dopamine receptor) | AC50 (Histamine H3 receptor) | AC50 [9]
1 | CS(=O)(=O)NC(=O)CCC/C=C\C[C@H]1C(=O)C[C@@H](O)[C@@H]1/C=C/[C@@H](O)COc1ccccc1 [SULPROSTONE] | > 30 µM | > 30 µM | > 30 µM | > 30 µM | > 30 µM | > 30 µM | > 30 µM | > 30 µM | > 30 µM | > 30 µM | > 30 µM | > 30 µM | > 30 µM | –
2 | CCN1C(=O)NC(c2ccccc2)C1=O (stereo not given) [ETHOTOIN] | > 30 µM | > 30 µM | > 30 µM | > 30 µM | – | > 30 µM | > 30 µM | > 30 µM | > 30 µM | > 30 µM | > 30 µM | > 30 µM | > 30 µM | –
3 | COC(=O)c1ccc2c(c1)NC(=O)/C2=C(\Nc1ccc(N(C)C(=O)CN2CCN(C)CC2)cc1)c1ccccc1 [NINTEDANIB] | > 30 µM | > 30 µM | > 30 µM | – | > 30 µM | > 30 µM | > 30 µM | > 30 µM | – | > 30 µM | > 30 µM | > 30 µM | > 30 µM | –
4 | CC1=C(C(=O)O)N2C(=O)[C@@H](NC(=O)[C@H](N)C3=CCC=CC3)[C@H]2SC1 [CEPHRADINE] | > 30 µM | > 30 µM | > 30 µM | > 30 µM | – | > 30 µM | > 30 µM | > 30 µM | – | > 30 µM | > 30 µM | > 30 µM | > 30 µM | –
5 | CCN(CC)Cc1nccn1-c1ccc([N+](=O)[O-])cc1C(=O)c1ccccc1Cl [NIZOFENONE] | > 30 µM | > 30 µM | > 30 µM | – | > 30 µM | > 30 µM | > 30 µM | > 30 µM | – | > 30 µM | > 30 µM | > 30 µM | > 30 µM | > 30 µM
6 | COc1ccc(-n2nc(C(N)=O)c3c2C(=O)N(c2ccc(N4CCCCC4=O)cc2)CC3)cc1 [APIXABAN] | > 30 µM | > 30 µM | > 30 µM | – | > 30 µM | > 30 µM | > 30 µM | > 30 µM | – | > 30 µM | > 30 µM | > 30 µM | > 30 µM | –
7 | O=C(O)c1nn(Cc2ccc(Cl)cc2Cl)c2ccccc12 [LONIDAMINE] | > 30 µM | > 30 µM | > 30 µM | > 30 µM | – | > 30 µM | > 30 µM | > 30 µM | > 30 µM | > 30 µM | > 30 µM | > 30 µM | > 30 µM | –
8 | COc1cc(N)cn[n+]1-c1ccccc1 [AMEZINIUM METILSULFATE] | > 30 µM | > 30 µM | > 30 µM | – | > 30 µM | > 30 µM | > 30 µM | > 30 µM | 9.1 µM | > 30 µM | > 30 µM | > 30 µM | > 30 µM | > 30 µM
9 | CCCCCCOC(=O)NC(=N)c1ccc(NCc2nc3cc(C(=O)N(CCC(=O)OCC)c4ccccn4)ccc3n2C)cc1 [DABIGATRAN ETEXILATE] | > 30 µM | > 30 µM | > 30 µM | – | – | > 30 µM | > 30 µM | > 30 µM | – | > 30 µM | > 30 µM | > 30 µM | > 30 µM | –
10 | CNCCc1ccccn1 [BETAHISTINE] | > 30 µM | – | > 30 µM | – | > 30 µM | > 30 µM | > 30 µM | > 30 µM | > 30 µM | > 30 µM | > 30 µM | > 30 µM | 11 µM | > 30 µM
11 | CC(=O)OCC(=O)[C@@]1(O)CC[C@H]2[C@@H]3CCC4=CC(=O)CC[C@]4(C)[C@@]3(F)[C@@H](O)C[C@@]21C [FLUDROCORTISONE ACETATE] | > 30 µM | – | > 30 µM | > 30 µM | > 30 µM | > 30 µM | > 30 µM | > 30 µM | > 30 µM | > 30 µM | > 30 µM | > 30 µM | > 30 µM | > 30 µM
12 | CC(=O)Oc1cccc2c1C(=O)c1c(OC(C)=O)cc(C(=O)O)cc1C2=O [DIACEREIN] | 21 µM | > 30 µM | > 30 µM | – | > 30 µM | > 30 µM | > 30 µM | > 30 µM | – | > 30 µM | > 30 µM | > 30 µM | > 30 µM | > 30 µM
13 | CC(=O)OCC1=C(C(=O)O)N2C(=O)[C@@H](NC(=O)Cc3cccs3)[C@H]2SC1 [CEPHALOTHIN] | > 30 µM | > 30 µM | > 30 µM | – | – | > 30 µM | > 30 µM | > 30 µM | > 30 µM | > 30 µM | > 30 µM | > 30 µM | > 30 µM | –
14 | CCCCOC(=O)c1ccc(N)cc1 [BUTAMBEN] | > 30 µM | – | > 30 µM | > 30 µM | > 30 µM | > 30 µM | > 30 µM | > 30 µM | > 30 µM | > 30 µM | > 30 µM | > 30 µM | > 30 µM | > 30 µM
15 | CO/N=C(\C(=O)N[C@@H]1C(=O)N2C(C(=O)[O-])=C(C[n+]3ccc(N)n3CCO)CS[C@H]12)c1csc(N)n1 [CEFOSELIS] | > 30 µM | > 30 µM | > 30 µM | – | > 30 µM | > 30 µM | > 30 µM | > 30 µM | – | > 30 µM | > 30 µM | > 30 µM | > 30 µM | > 30 µM
16 | CN1CCCN=C1/C=C/c1cccc(O)c1 [OXANTEL] | > 30 µM | > 30 µM | > 30 µM | – | > 30 µM | > 30 µM | > 30 µM | > 30 µM | > 30 µM | > 30 µM | > 30 µM | > 30 µM | > 30 µM | –
